A word on the inhibition: it is how much of the control response was suppressed. The term pIC50 denotes the negative decadic logarithm of the IC50, by convention in mol/L.

Molecules are shown by their SMILES. pIC50: −log10 of the molar value.

Here are results for 25 molecules from patent publication US8344010B2, “Fused imidazole derivatives as TRPV3 antagonist” (Glenmark Pharmaceuticals S.A., priority 2008, dated 2013).

In the assay the target is T1, Human TRPV3 (Homo sapiens, UniProt Q8NET8).
T1 construct: expressed in transfected cells; host or cells: CHO cells (selected with G-418)
T1 sequence (Q8NET8 1-790): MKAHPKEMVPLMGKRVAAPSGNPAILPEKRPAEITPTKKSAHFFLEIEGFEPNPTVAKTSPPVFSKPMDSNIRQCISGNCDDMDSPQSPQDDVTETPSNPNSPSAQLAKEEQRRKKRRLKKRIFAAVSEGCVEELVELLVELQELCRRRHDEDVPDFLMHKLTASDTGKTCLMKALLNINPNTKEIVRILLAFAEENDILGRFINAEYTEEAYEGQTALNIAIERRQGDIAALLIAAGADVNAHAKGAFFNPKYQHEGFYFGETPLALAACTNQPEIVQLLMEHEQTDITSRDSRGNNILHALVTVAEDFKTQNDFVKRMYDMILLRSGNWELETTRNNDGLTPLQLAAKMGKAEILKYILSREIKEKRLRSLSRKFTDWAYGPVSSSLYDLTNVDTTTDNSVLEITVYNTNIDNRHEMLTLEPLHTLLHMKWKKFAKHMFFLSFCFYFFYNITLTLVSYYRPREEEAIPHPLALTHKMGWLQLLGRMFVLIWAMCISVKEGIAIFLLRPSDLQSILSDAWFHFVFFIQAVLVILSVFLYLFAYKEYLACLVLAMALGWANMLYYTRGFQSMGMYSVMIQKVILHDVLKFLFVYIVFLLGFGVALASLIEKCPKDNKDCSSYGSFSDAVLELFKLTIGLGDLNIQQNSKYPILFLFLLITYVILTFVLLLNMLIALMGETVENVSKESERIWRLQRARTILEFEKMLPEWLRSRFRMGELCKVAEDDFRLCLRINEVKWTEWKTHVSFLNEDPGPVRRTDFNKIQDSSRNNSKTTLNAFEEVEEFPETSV
The assay can be described thus: 45Calcium uptake assay: inhibition of 2-APB induced cellular uptake of radioactive calcium. In kind it is cell-based. The settings on record: human TRPV3 expressing CHO cells, 2-APB 500 μM; for inhibition at 1 µM: 1 μM test compound, read-out: Percentage Inhibition (1 μM); for inhibition at 10 µM: 10 μM test compound, read-out: Percentage Inhibition (10 μM); for pIC50: class symbol. In short, it runs like this:
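CHO cells expressing human TRPV3 were preincubated with compound for 10 min (0.5% DMSO final), then given 500 μM 2-APB plus 5 μCi/ml 45Ca2+ for 4 min. Lysate radioactivity was counted by scintillation; responses as % of maximal without antagonist, with IC50 by nonlinear regression.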

Consider `COc1cccc(/C=C/c2nc3ccccc3n2-c2ccc(C#N)cn2)c1OCc1ccc(F)cc1F` [Example 18, 6-(2-{(E)-2-[2-(2,4-Difluorobenzyloxy)-3-methoxyphenyl]vinyl}-1H-benzimidazol-1-yl)nicotinonitrile], for which the inhibition at 1 µM is 94.2%, the inhibition at 10 µM is 97.3% and the pIC50 is 6.30 to 7.00.

Turning to `COc1cccc(/C=C/c2nc3ccccc3n2-c2ncccn2)c1OC1CCCC1` [Example 21], the inhibition at 1 µM was 13% and the inhibition at 10 µM came to 81.9%.

Turning to `COc1cccc(/C=C/c2nc3ccccc3n2-c2ncc(Br)cn2)c1OC1CCCC1` [Example 23, 1-(5-Bromopyrimidin-2-yl)-2-[(E)-2-(2-cyclopentyloxy-3-methoxyphenyl)vinyl]-1H-benzimidazole], the inhibition at 1 µM is 56% and the inhibition at 10 µM turned out to be 84.5%.

For the molecule `COC(=O)c1ccc(-n2c(/C=C/c3cccc(OC)c3OC3CCCC3)nc3ccc(F)cc32)nc1` [Example 60, Methyl 6-{2-[(E)-2-(2-Cyclopentyloxy-3-methoxyphenyl)vinyl]-6-fluoro-1H-benzimidazol-1-yl}nicotinate], the inhibition at 1 µM worked out at 32.1% and the inhibition at 10 µM came out at 30.2%.

In the case of `COc1cccc(/C=C/c2nc3ccccc3n2Cc2ccc(C#N)cc2)c1OC1CCCC1` [Example 43, 4-({2-[(E)-2-(2-Cyclopentyloxy-3-methoxyphenyl)vinyl]-1H-benzimidazol-1-yl}methyl)benzonitrile], the inhibition at 1 µM came to 88.8%, the inhibition at 10 µM was found to be 97.5% and the pIC50 is 6.30 to 7.00.

In the case of `COc1cccc(/C=C/c2nc3cc(Cl)ccc3n2-c2ccc(C#N)cn2)c1OC1CCCC1` [Example 55, 6-{5-chloro-2-[(E)-2-(2-cyclopentyloxy-3-methoxyphenyl)vinyl]-1H-benzimidazol-1-yl}nicotinonitrile], the inhibition at 1 µM turned out to be 95.9%, the inhibition at 10 µM came out at 97.6% and the pIC50 was 6.30 to 7.00.

As to `COc1cccc(/C=C/c2nc3cnccc3n2-c2ccc(C#N)cn2)c1OC1CCCC1` [Example 104, 6-{2-[(E)-2-(2-[Cyclopentyloxy]-3-methoxyphenyl)vinyl]-1H-imidazo[4,5-c]pyridin-1-yl}nicotinonitrile], the inhibition at 1 µM was 48.7% and the inhibition at 10 µM turned out to be 98.3%.

As to `COc1cccc(/C=C/c2nc3ccccc3n2-c2nccs2)c1OCC1CC1` [Example 46], the inhibition at 1 µM was 16.1% and the inhibition at 10 µM was 81.1%.

As to `CCCCOc1c(/C=C/c2nc3ccccc3n2-c2ccc(C#N)cc2)cccc1OC` [Example 36, 4-{2-[(E)-2-(2-Butoxy-3-methoxyphenyl)vinyl]-1H-benzimidazol-1-yl}benzonitrile], the inhibition at 1 µM was determined as 82.8%, the inhibition at 10 µM is 96% and the pIC50 is 6.30 to 7.00.

For `COc1cccc(/C=C/c2nc3ccc(OC(F)F)cc3n2-c2ccc(C#N)cn2)c1OC1CCCC1` [Example 58, 6-{6-(Difluoromethoxy)-2-[(E)-2-(2-[cyclopentyloxy]-3-methoxyphenyl)vinyl]-1H-benzimidazol-1-yl}nicotinonitrile], the inhibition at 1 µM turned out to be 96.3%, the inhibition at 10 µM was 97.9% and the negative logarithm of the IC50 (pIC50) is 6.30 to 7.00.

As to `COc1cccc(/C=C/c2nc3ccccc3n2-c2ccc(F)c(C#N)c2)c1OCC1CC1` [Example 38], the inhibition at 1 µM is 48.3% and the inhibition at 10 µM is 59.2%.

As for `COc1cccc(/C=C/c2nc3ccccc3n2-c2ccc(C#N)cn2)c1OC(C)C` [Example 9, 6-{2-[(E)-2-(2-Isopropoxy-3-methoxyphenyl)vinyl]-1H-benzimidazol-1-yl}nicotinonitrile], the inhibition at 1 µM was determined as 79.7%, the inhibition at 10 µM turned out to be 97.9% and the pIC50 is less than 6.30.

Consider `CCCCOc1c(/C=C/c2nc3cc(F)c(F)cc3n2-c2ccc(C#N)cn2)cccc1OC` [Example 64, 6-{2-[(E)-2-(2-Butoxy-3-methoxyphenyl)vinyl]-5,6-difluoro-1H-benzimidazol-1-yl}-nicotinonitrile], for which the inhibition at 1 µM was 96.4%, the inhibition at 10 µM worked out at 99.9% and the pIC50 is 6.30 to 7.00.

Regarding `COc1cccc(/C=C/c2nc3ccccc3n2Cc2ccc(C#N)cc2)c1OCC1CC1` [Example 42, 4-({2-[(E)-2-(2-Cyclopropylmethoxy-3-methoxyphenyl)vinyl]-1H-benzimidazol-1-yl}methyl)benzonitrile], the inhibition at 1 µM was determined as 60.2% and the inhibition at 10 µM is 87.3%.

For the molecule `COc1cccc(/C=C/c2nc3ccccc3n2-c2ccc(C#N)cn2)c1OCC(C)C` [Example 11, 6-(2-{(E)-2-[3-methoxy-2-(2-methylpropoxy)phenyl]ethenyl}-1H-benzimidazol-1-yl)pyridine-3-carbonitrile], the inhibition at 1 µM was 94.8%, the inhibition at 10 µM was determined as 97.4% and the pIC50 is 6.30 to 7.00.

In the case of `COc1cccc(/C=C/c2nc3ccccc3n2-c2nc(C)c(C#N)s2)c1OC1CCCC1` [Example 49, 2-{2-[(E)-2-(2-Cyclopentyloxy-3-methoxyphenyl)vinyl]-1H-benzimidazol-1-yl}-4-methyl-1,3-thiazole-5-carbonitrile], the inhibition at 1 µM was 56.1% and the inhibition at 10 µM is 76.9%.

`CCCCOc1c(/C=C/c2nc3ccccc3n2-c2ccc(C(F)(F)F)cn2)cccc1OC` [Example 85, 2-[(E)-2-(2-butoxy-3-methoxyphenyl)vinyl]-1-(5-trifluoromethylpyridin-2-yl)-1H-benzimidazole]: the inhibition at 1 µM came to 71.1%, the inhibition at 10 µM came to 90.2% and the pIC50 was 6.30 to 7.00.

`COc1cccc(/C=C/c2nc3ccc(Cl)cc3n2-c2ccc(C#N)cn2)c1OCC(C)C` [Example 52, 6-(6-Chloro-2-{(E)-2-[3-methoxy-2-(2-methylpropoxy)phenyl]ethenyl}-1H-benzimidazol-1-yl)pyridine-3-carbonitrile]: the inhibition at 1 µM stood at 97.7%, the inhibition at 10 µM came to 98.4% and the pIC50 was 7.00 to 7.30.

Consider `COc1cccc(/C=C/c2nc3ccccc3n2-c2ncc(Cl)cc2Cl)c1OCc1ccccc1` [Example 5, 2-[(E)-2-(2-Benzyloxy-3-methoxyphenyl)vinyl]-1-(3,5-dichloropyridin-2-yl)-1H-benzimidazole], for which the inhibition at 1 µM was 38.8% and the inhibition at 10 µM came out at 69.3%.

As for `COc1cccc(/C=C/c2nc3ccccc3n2-c2cccs2)c1OCC1CC1` [Example 45, 2-[(E)-2-(2-Cylopropymethoxy-3-methoxyphenyl)]-1-(2-thienyl)-1H-benzimidazole], the inhibition at 1 µM is 43.4% and the inhibition at 10 µM amounted to 83.8%.

Take `N#Cc1ccc(-n2c(/C=C/c3cccc(OC(F)F)c3OCC3CCC3)nc3cc(Cl)cnc32)nc1` [Example 102, 6-(6-Chloro-2-{(E)-2-[2-(cyclobutylmethoxy)-3-difluoromethoxyphenyl]vinyl}-3H-imidazo[4,5-b]pyridin-3-yl)nicotinonitrile]: the inhibition at 1 µM amounted to 95.1%, the inhibition at 10 µM worked out at 98.1% and the negative-log IC50 (pIC50) is 7.00 to 7.30.

As for `COc1cccc(/C=C/c2nc3cc(Cl)cnc3n2-c2ccc(C#N)cn2)c1OCC1CCC1` [Example 94, 6-(6-Chloro-2-{(E)-2-[2-(cyclobutylmethoxy)-3-methoxyphenyl]vinyl}-3H-imidazo[4,5-b]pyridin-3-yl)nicotinonitrile], the inhibition at 1 µM was 94.5%, the inhibition at 10 µM turned out to be 98% and the pIC50 is 7.00 to 7.30.

For the molecule `COc1cccc(/C=C/c2nc3cc(F)c(F)cc3n2-c2ccc(C#N)cn2)c1O` [Example 69, 6-{5,6-Difluoro-2-[(E)-2-(2-hydroxy-3-methoxyphenyl)vinyl]-1H-benzimidazol-1-yl}nicotinonitrile], the inhibition at 1 µM is 32.7% and the inhibition at 10 µM stood at 95.5%.

As for `CCCCCOc1c(/C=C/c2nc3cc(F)cc(F)c3n2-c2ccc(C#N)cn2)cccc1OC` [Example 78, 6-{5,7-Difluoro-2-[(E)-2-(2-pentyloxy-3-methoxyphenyl)vinyl]-1H-benzimidazol-1-yl}nicotinonitrile], the inhibition at 1 µM stood at 92.7%, the inhibition at 10 µM turned out to be 96.8% and the pIC50 was 7.00 to 7.30.

`COc1cccc(/C=C/c2nc3cc(F)c(F)cc3n2-c2ccc(C#N)cn2)c1OCC(C)C` [Example 66, 6-{5,6-Difluoro-2-[(E)-2-(2-isobutoxy-3-methoxyphenyl)vinyl]-1H-benzimidazol-1-yl}nicotinonitrile]: the inhibition at 1 µM came to 98.6%, the inhibition at 10 µM was determined as 99.5% and the pIC50 was 6.30 to 7.00.
